From patent US20100298141A1, “SUBSTITUTED PYRIDINE N-OXIDE HERBICIDES” (E. I. DU PONT DE NEMOURS AND COMPANY, priority 2007, published 2010)

Assays:
crabgrass = assay: Test A pre-/postemergence greenhouse test; type: in vivo, Digitaria sanguinalis; conditions: for Crabgrass, Large plant response rating: 0 to 100 scale; for Plant response rating, Crabgrass, Large: 0 to 100 scale where 0 is no effect and 100 is complete control
Procedure, shortened: (§1)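 Planting was into mixed loam soil and sand; preemergence treatment followed as a directed soil spray. Concurrently, emerged plants (one- to two-leaf, 2–10 cm) received postemergence applications of identically formulated compound (non-phytotoxic solvent, surfactant). After approximately ten days under greenhouse conditions, injury was judged by eye against untreated plants.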

Goosegrass = assay: Test C pre-/postemergence test; type: in vivo, Eleusin indica; conditions: Preemergence; for Goosegrass plant response rating: 62 g ai/ha, scale 0 to 100; for Plant response rating, Goosegrass: 31 g ai/ha, scale 0 to 100 (0 no effect, 100 complete control); for Plant response rating (0 to 100), Goosegrass: 250 g ai/ha
Procedure, shortened: (§2)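 Compounds in a non-phytotoxic solvent with surfactant applied preemergence to seeded pots and, at the same time, postemergence to plants 2–18 cm tall (1- to 4-leaf stage). Paddy tests: pots flooded to 3 cm, compound applied into the water, depth held throughout.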

redroot pigweed = assay: Test A pre-/postemergence greenhouse test; type: in vivo, Amaranthus retroflexus; conditions: for Pigweed plant response rating: 0 to 100 scale; for Plant response rating, Pigweed: 0 to 100 scale where 0 is no effect and 100 is complete control
Procedure, shortened: as §1

green foxtail = assay: Test C pre-/postemergence test; type: in vivo, Setaria viridis; conditions: Preemergence; for Foxtail, Green plant response rating: 62 g ai/ha, scale 0 to 100; for Plant response rating, Foxtail, Green: 31 g ai/ha, scale 0 to 100 (0 no effect, 100 complete control)
Procedure, shortened: as §2

wheat = assay: Test C pre-/postemergence test; type: in vivo, Triticum aestivum; conditions: Preemergence; for Wheat plant response rating: 62 g ai/ha, scale 0 to 100; for Plant response rating, Wheat: 31 g ai/ha, scale 0 to 100 (0 no effect, 100 complete control)
Procedure, shortened: as §2

blackgrass = assay: Test C pre-/postemergence test; type: in vivo, Alopecurus myosuroides; conditions: for Plant response rating, Blackgrass: 31 g ai/ha, scale 0 to 100 (0 no effect, 100 complete control); for Plant response rating (0 to 100), Blackgrass: 250 g ai/ha
Procedure, shortened: as §2

eastern black nightshade = assay: Test C pre-/postemergence test; type: in vivo, Solanum ptycanthum; conditions: Preemergence; for Nightshade plant response rating: 62 g ai/ha, scale 0 to 100; for Plant response rating, Nightshade: 31 g ai/ha, scale 0 to 100 (0 no effect, 100 complete control)
Procedure, shortened: as §2

corn = assay: Test C pre-/postemergence test; type: in vivo, Zea mays; conditions: for Plant response rating, Corn: 31 g ai/ha, scale 0 to 100 (0 no effect, 100 complete control); for Plant response rating (0 to 100), Corn: 250 g ai/ha
Procedure, shortened: as §2

yellow nutsedge = assay: Test C pre-/postemergence test; type: in vivo, Cyperus esculentus; conditions: Preemergence; for Nutsedge, Yellow plant response rating: 62 g ai/ha, scale 0 to 100; for Plant response rating, Nutsedge, Yellow: 31 g ai/ha, scale 0 to 100 (0 no effect, 100 complete control)
Procedure, shortened: as §2

woolly cupgrass = assay: Test C pre-/postemergence test; type: in vivo, Eriochloa villosa; conditions: Preemergence; for Cupgrass, Woolly plant response rating: 62 g ai/ha, scale 0 to 100; for Plant response rating, Cupgrass, Woolly: 31 g ai/ha, scale 0 to 100 (0 no effect, 100 complete control); for Plant response rating (0 to 100), Cupgrass, Woolly: 250 g ai/ha
Procedure, shortened: as §2

duck salad = assay: Test C flooded paddy test; type: in vivo, Heteranthera limosa; conditions: Flood
Procedure, shortened: (§3)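 Ratings were visual and made relative to untreated controls after 13 to 15 greenhouse days.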

Italian ryegrass = assay: Test C pre-/postemergence test; type: in vivo, Lolium multiflorum; conditions: Preemergence; for Ryegrass, Italian plant response rating: 62 g ai/ha, scale 0 to 100; for Plant response rating, Ryegrass, Italian: 31 g ai/ha, scale 0 to 100 (0 no effect, 100 complete control)
Procedure, shortened: as §2

common ragweed = assay: Test C pre-/postemergence test; type: in vivo, Ambrosia elation; conditions: Preemergence; for Ragweed plant response rating: 62 g ai/ha, scale 0 to 100; for Plant response rating, Ragweed: 31 g ai/ha, scale 0 to 100 (0 no effect, 100 complete control)
Procedure, shortened: as §2

wild oat = assay: Test C pre-/postemergence test; type: in vivo, Avena fatua; conditions: Preemergence; for Oat, Wild plant response rating: 62 g ai/ha, scale 0 to 100; for Plant response rating, Oat, Wild: 31 g ai/ha, scale 0 to 100 (0 no effect, 100 complete control)
Procedure, shortened: as §2

[1] = tested on: common (oilseed) sunflower; assay: Test C pre-/postemergence test; type: in vivo, Helianthus annuus; conditions: Preemergence; for Sunflower plant response rating: 62 g ai/ha, scale 0 to 100; for Plant response rating, Sunflower: 31 g ai/ha, scale 0 to 100 (0 no effect, 100 complete control)
Procedure, shortened: as §2

morningglory = assay: Test A pre-/postemergence greenhouse test; type: in vivo, Ipomoea spp.; conditions: for Morningglory plant response rating: 0 to 100 scale; for Plant response rating, Morningglory: 0 to 100 scale where 0 is no effect and 100 is complete control
Procedure, shortened: as §1

umbrella sedge = assay: Test C flooded paddy test; type: in vivo, Cyperus difformis; conditions: Flood
Procedure, shortened: as §3

[2] = Postemergence, 125 g ai/ha, 0 is no effect, 100 is complete control
[3] = Postemergence, 500 g ai/ha, 0 is no effect, 100 is complete control
[4] = Preemergence, 125 g ai/ha, 0 no effect, 100 complete control
[5] = 62 g ai/ha, Preemergence, scale 0 to 100
[6] = preemergence, 125 g ai/ha, scale 0 (no effect) to 100 (complete control)
[7] = 31 g ai/ha, scale 0 to 100 (0 no effect, 100 complete control)
[8] = 62 g ai/ha, scale 0 to 100, 0 no effect, 100 complete control, 13 to 15 days
[9] = 125 g ai/ha, scale 0 to 100, 0 no effect, 100 complete control, 13 to 15 days
[10] = 250 g ai/ha, scale 0 to 100, 0 no effect, 100 complete control, 13 to 15 days

In the case of `Cn1nc(C(F)(F)F)c(C[S+]([O-])c2cc(C(C)(C)C)cc[n+]2[O-])c1OC(F)F` (racemic) [Compound 24], the “Crabgrass, Large plant response rating” value (crabgrass; [2]) is reported as 0, the “Crabgrass, Large plant response rating” value (crabgrass; [3]) is reported as 60 and the “Crabgrass, Large plant response rating” value (crabgrass; [4]) is reported as 90. The “Plant response rating, Crabgrass, Large” value (crabgrass; Preemergence, 500 g ai/ha) was 100, the “Goosegrass plant response rating” value (Goosegrass) was 100 and the “Plant response rating, Goosegrass” value (Goosegrass) was 85. The “Plant response rating (0 to 100), Goosegrass” value (Goosegrass) was 100, the “Pigweed plant response rating” value (redroot pigweed; [2]) was 20 and the “Pigweed plant response rating” value (redroot pigweed; [3]) was 50. For the same compound, the “Pigweed plant response rating” value (redroot pigweed; [4]) was 100, the “Plant response rating, Pigweed” value (redroot pigweed; Preemergence, 500 g ai/ha) was 100 and the “Foxtail, Green plant response rating” value (green foxtail) was 70. For the same compound, the “Plant response rating, Foxtail, Green” value (green foxtail) was 10, the “Plant response rating (0 to 100), Foxtail, Green” value (green foxtail; 250 g ai/ha) was 100 and the “Wheat plant response rating” value (wheat) was 40. The “Plant response rating, Wheat” value (wheat) was 0, the “Blackgrass plant response rating” value (blackgrass; [5]) was 20 and the “Plant response rating, Blackgrass” value (blackgrass; Preemergence) was 20. For the same compound, the “Plant response rating (0 to 100), Blackgrass” value (blackgrass; Preemergence) was 100, the “Blackgrass plant response rating” value (blackgrass; [6]) was 50 and the “Nightshade plant response rating” value (eastern black nightshade) was 100. For the same compound, the “Plant response rating, Nightshade” value (eastern black nightshade) was 100, the “Corn plant response rating” value (corn; [5]) was 50 and the “Plant response rating, Corn” value (corn; Preemergence) was 0. The “Plant response rating (0 to 100), Corn” value (corn; Preemergence) was 90, the “Corn plant response rating” value (corn; [6]) was 90 and the “Nutsedge, Yellow plant response rating” value (yellow nutsedge) was 70. The “Plant response rating, Nutsedge, Yellow” value (yellow nutsedge) was 0, the “Cupgrass, Woolly plant response rating” value (woolly cupgrass) was 60 and the “Plant response rating, Cupgrass, Woolly” value (woolly cupgrass) was 40. For the same compound, the “Plant response rating (0 to 100), Cupgrass, Woolly” value (woolly cupgrass) was 100, the “Plant response rating, Ducksalad” value (duck salad; [7]) was 0 and the “Plant response rating, Ducksalad” value (duck salad; [8]) was 60. For the same compound, the “Plant response rating, Ducksalad” value (duck salad; [9]) was 80, the “Plant response rating, Ducksalad” value (duck salad; 250 g ai/ha, scale 0 to 100 (0 no effect, 100 complete control)) was 85 and the “Ryegrass, Italian plant response rating” value (Italian ryegrass) was 0. For the same compound, the “Plant response rating, Ryegrass, Italian” value (Italian ryegrass) was 0, the “Ragweed plant response rating” value (common ragweed) was 70 and the “Plant response rating, Ragweed” value (common ragweed) was 0. For the same compound, the “Oat, Wild plant response rating” value (wild oat) was 80, the “Plant response rating, Oat, Wild” value (wild oat) was 50 and the “Sunflower plant response rating” value [1] was 0. For the same compound, the “Plant response rating, Sunflower” value [1] was 0, the “Morningglory plant response rating” value (morningglory; [2]) was 40 and the “Morningglory plant response rating” value (morningglory; [3]) was 90. The “Morningglory plant response rating” value (morningglory; [4]) was 70, the “Plant response rating, Morningglory” value (morningglory; Preemergence, 500 g ai/ha) was 90 and the “Plant response rating, Sedge, Umbrella” value (umbrella sedge; [7]) was 60. The “Plant response rating, Sedge, Umbrella” value (umbrella sedge; [8]) was 85, the “Plant response rating, Sedge, Umbrella” value (umbrella sedge; [9]) was 95 and the “Plant response rating, Sedge, Umbrella” value (umbrella sedge; [10]) was 95.

With `Cc1cc[n+]([O-])c(S(=O)(=O)Cc2c(C(F)(F)F)nn(C)c2OCC(F)(F)F)c1` [Compound 31] the “Crabgrass, Large plant response rating” value (crabgrass; [2]) was 70, the “Crabgrass, Large plant response rating” value (crabgrass; [3]) was 80 and the “Crabgrass, Large plant response rating” value (crabgrass; [4]) was 90. For the same compound, the “Plant response rating, Crabgrass, Large” value (crabgrass; Preemergence, 500 g ai/ha) was 100, the “Goosegrass plant response rating” value (Goosegrass) was 100 and the “Plant response rating, Goosegrass” value (Goosegrass) was 100. The “Plant response rating (0 to 100), Goosegrass” value (Goosegrass) was 100, the “Pigweed plant response rating” value (redroot pigweed; [2]) was 80 and the “Pigweed plant response rating” value (redroot pigweed; [3]) was 80. The “Pigweed plant response rating” value (redroot pigweed; [4]) was 100, the “Plant response rating, Pigweed” value (redroot pigweed; Preemergence, 500 g ai/ha) was 100 and the “Foxtail, Green plant response rating” value (green foxtail) was 100. The “Plant response rating, Foxtail, Green” value (green foxtail) was 100, the “Wheat plant response rating” value (wheat) was 30 and the “Plant response rating, Wheat” value (wheat) was 0. The “Blackgrass plant response rating” value (blackgrass; [5]) was 80, the “Plant response rating, Blackgrass” value (blackgrass; Preemergence) was 60 and the “Plant response rating (0 to 100), Blackgrass” value (blackgrass; Preemergence) was 100. For the same compound, the “Blackgrass plant response rating” value (blackgrass; [6]) was 100, the “Nightshade plant response rating” value (eastern black nightshade) was 95 and the “Plant response rating, Nightshade” value (eastern black nightshade) was 95. For the same compound, the “Corn plant response rating” value (corn; [5]) was 50, the “Plant response rating, Corn” value (corn; Preemergence) was 0 and the “Plant response rating (0 to 100), Corn” value (corn; Preemergence) was 98. For the same compound, the “Corn plant response rating” value (corn; [6]) was 85, the “Nutsedge, Yellow plant response rating” value (yellow nutsedge) was 100 and the “Plant response rating, Nutsedge, Yellow” value (yellow nutsedge) was 60. The “Cupgrass, Woolly plant response rating” value (woolly cupgrass) was 100, the “Plant response rating, Cupgrass, Woolly” value (woolly cupgrass) was 95 and the “Plant response rating (0 to 100), Cupgrass, Woolly” value (woolly cupgrass) was 100. The “Plant response rating, Ducksalad” value (duck salad; [7]) was 45, the “Plant response rating, Ducksalad” value (duck salad; [8]) was 45 and the “Plant response rating, Ducksalad” value (duck salad; [9]) was 80. The “Plant response rating, Ducksalad” value (duck salad; [10]) was 90, the “Ryegrass, Italian plant response rating” value (Italian ryegrass) was 60 and the “Plant response rating, Ryegrass, Italian” value (Italian ryegrass) was 40. The “Ragweed plant response rating” value (common ragweed) was 10, the “Plant response rating, Ragweed” value (common ragweed) was 0 and the “Oat, Wild plant response rating” value (wild oat) was 60. The “Plant response rating, Oat, Wild” value (wild oat) was 5, the “Sunflower plant response rating” value [1] was 20 and the “Plant response rating, Sunflower” value [1] was 20. For the same compound, the “Morningglory plant response rating” value (morningglory; [2]) was 60, the “Morningglory plant response rating” value (morningglory; [3]) was 80 and the “Morningglory plant response rating” value (morningglory; [4]) was 90. The “Plant response rating, Morningglory” value (morningglory; Preemergence, 500 g ai/ha) was 100, the “Plant response rating, Sedge, Umbrella” value (umbrella sedge; [7]) was 65 and the “Plant response rating, Sedge, Umbrella” value (umbrella sedge; [8]) was 85. For the same compound, the “Plant response rating, Sedge, Umbrella” value (umbrella sedge; [9]) was 100 and the “Plant response rating, Sedge, Umbrella” value (umbrella sedge; [10]) was 100.
